The source of these data is patent US10023591B2, “Heterocyclic derivatives and use thereof” (C&C RESEARCH LABORATORIES, priority 2014, dated 2018).

The subject of one experiment is STAT3. Nature of the experiment: STAT3 reporter gene assay (luciferase), LNCaP stable cell line pSTAT3-TA-luc, IL-6 stimulation. In kind it is cell-based, human. Particulars: Homo sapiens. The gist of the method:
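LNCaP cells stably carrying pSTAT3-TA-luc were plated 24 h in 3% DCC-FBS medium, then given compound followed by IL-6 (10 ng/mL final) for 24 h at 37 °C. Luciferase was read from lysates, with CellTiter-Glo viability on a duplicate plate. Stimulated 0.1% DMSO wells served as uninhibited control.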
On the technique in general: Reporter assays use an easily measured gene product as a stand-in for the process of interest.

Another experiment concerns STAT1. Nature of the experiment: STAT1 reporter gene assay (luciferase), U2OS stable cell line pGL4-STAT1-TA-luc, IFN-γ stimulation. In kind it is cell-based, human. Particulars: Homo sapiens, IFN-γ 50 ng/mL, 8 hours, read-out: IC50 (μM) pSTAT1. The gist of the method: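 U2OS cells stably carrying a STAT1-driven luciferase reporter were treated with serially diluted compounds plus IFN-γ (50 ng/mL final) for 8 h at 37 °C in 10% FBS medium. Luciferase read after lysis; parallel plate assessed for cytotoxicity by CellTiter-Glo.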

Experiment [1] has as its system LNCaP prostate cancer cell line. As to the kind of experiment: Cell growth inhibition assay, LNCaP (CellTiter-Glo). In kind it is cell-based. Particulars: Homo sapiens; LNCaP, 10,000 cells/well, medium with 10 ng/mL IL-6, 96 hours. The method, then: (§1) The inhibitory effects of the compounds of the present invention against the growth of cancer cells were evaluated as shown below. The cancer cell lines including prostate cancer cell lines (LNCaP, DU-145), stomach cancer cell line (NCI-N87), and breast cancer cell lines (MDA-MB-468) were cultured under the protocol provided by each supplier. A medium supplemented with 10 ng/mL of IL-6 was used for LNCaP, a prostate cancer cell line, when treated with a drug. Each type of cells to be used in experiments was sub-cultured in a 96-well plate by counting the exact number of cells using Tali™ Image-based Cytometer (Life Technologies). In a 96-well plate, DU-145 was employed with 3,000 cells/well; NCI-N87 was employed with 5,000 cells/well; and LNCaP and MDA-MB-468 were employed with 10,000 cells/well. The cells were treated with the compounds listed in Examples which were diluted in various concentrations. Upon completion of the compounds treatment, LNCaP, DU-145, NCI-N87 cells were cultured at 37° C. under 5% CO2 for 96 hours, and MDA-MB-468 cells were cultured at 37° C. in air for 96 hours. Subsequently, the cells were observed under microscope and drug precipitation and particular findings were investigated and recorded. And then, the 96-well plate was placed at room temperature for 30 minutes, added with 20 pt/well of CellTiter-Glo solution (Cat No. G7573, Promega) and shaken for 10 minutes, followed by being subjected to the measurement using PHERAstar™ microplate reader (BMG LABTECH) according to the supplier's general luminometer protocol. Wells where only culture liquid added without cell plating were used as a negative control, whereas wells where culture liquid containing 0.1% DMSO instead of the compounds listed in Examples were used as a positive control.
In general terms: ATP-based viability assays read luminescence as a measure of living cells.

The subject of experiment [2] is DU-145 prostate cancer cell line. Nature of the experiment: Cell growth inhibition assay, DU-145 (CellTiter-Glo). In kind it is cell-based. Particulars: Homo sapiens; DU-145, 3,000 cells/well, 96 hours. The method, then: as §1

Structures are written as SMILES.

`CC(C)Oc1cc(OC(F)(F)F)cc(C(C)(C)c2cc(Cl)cc(NC(=O)c3cc4cc(CS(C)(=O)=O)ccc4s3)c2)c1` [Example 16, N-(3-chloro-5-(2-(3-isopropoxy-5-(trifluoromethoxy)phenyl)propan-2-yl)phenyl)-5-((methylsulfonyl)methyl)benzo[b]thiophene-2-carboxamide]: the IC50 in the experiment with STAT3 was 0.0057 µM; with STAT1, more than 50 µM; in experiment [1] it was 0.0022 µM; in experiment [2], 0.0018 µM.
On the same counts, the results for `COc1ccc(C(C)(C)c2cc(Cl)cc(NC(=O)c3cc4cc(C(C)(C)S(C)(=O)=O)ccc4s3)c2)cc1` [Example 17, N-(3-chloro-5-(2-(4-methoxyphenyl)propan-2-yl)phenyl)-5-(2-(methylsulfonyl)propan-2-yl)benzo[b]thiophene-2-carboxamide] are 0.045 µM, more than 50 µM, 0.08 µM and 0.039 µM.
On the same counts, the results for `CC(C)(c1ccc(F)cc1)c1cc(Cl)cc(NC(=O)c2cc3cc(C(C)(C)S(C)(=O)=O)ccc3s2)c1` [Example 18, N-(3-chloro-5-(2-(4-fluorophenyl)propan-2-yl)phenyl)-5-(2-(methylsulfonyl)propan-2-yl)benzo[b]thiophene-2-carboxamide] are 0.031 µM, more than 50 µM, 0.056 µM and 0.023 µM.
On the same counts, the results for `CC(C)(c1ccc(F)cc1)c1cc(Cl)cc(NC(=O)c2cc3cc(C(C)(C)S(C)(=O)=O)c(F)cc3s2)c1` [Example 19, N-(3-chloro-5-(2-(4-fluorophenyl)propan-2-yl)phenyl)-6-fluoro-5-(2-(methylsulfonyl)propan-2-yl)benzo[b]thiophene-2-carboxamide] are 0.029 µM, more than 50 µM, 0.043 µM and 0.022 µM.
Regarding `CC(C)(c1ccc(Cl)cc1)c1cc(Cl)cc(NC(=O)c2cc3cc(CS(C)(=O)=O)ccc3s2)c1` [Example 21, N-(3-chloro-5-(2-(4-chlorophenyl)propan-2-yl)phenyl)-5-((methylsulfonyl)methyl)benzo[b]thiophene-2-carboxamide], the IC50 with STAT3 was 0.11 µM; in the experiment with STAT1, more than 50 µM; in experiment [1], 0.04 µM; in experiment [2], 0.017 µM.
`CC(C)(c1ccc(Cl)cc1)c1cc(Cl)cc(NC(=O)c2cc3cc(C(C)(C)S(C)(=O)=O)ccc3s2)c1` [Example 22, N-(3-chloro-5-(2-(4-chlorophenyl)propan-2-yl)phenyl)-5-(2-(methylsulfonyl)propan-2-yl)benzo[b]thiophene-2-carboxamide]: the IC50 with STAT3 is 0.015 µM; in the experiment on STAT1 it was more than 50 µM; in experiment [1], 0.024 µM; in experiment [2], 0.014 µM.
On the same counts, the results for `CC(C)(c1ccc(Cl)cc1)c1cc(Cl)cc(NC(=O)c2cc3cc(C(C)(C)S(C)(=O)=O)c(Cl)cc3s2)c1` [Example 23, 6-chloro-N-(3-chloro-5-(2-(4-chlorophenyl)propan-2-yl)phenyl)-5-(2-(methylsulfonyl)propan-2-yl)benzo[b]thiophene-2-carboxamide] are 0.084 µM, more than 50 µM, 0.8 µM and 0.04 µM.
As for `CC(C)(c1ccc(Cl)cc1)c1cc(Cl)cc(NC(=O)c2cc3cc(CS(=O)(=O)C(F)(F)F)ccc3s2)c1` [Example 24, N-(3-chloro-5-(2-(4-chlorophenyl)propan-2-yl)phenyl)-5-(((trifluoromethyl)sulfonyl)methyl)benzo[b]thiophene-2-carboxamide], the half-inhibitory concentration (IC50) was 0.9 µM with STAT3, more than 50 µM in the experiment with STAT1, more than 1.1 µM in experiment [1] and more than 1.1 µM in experiment [2].
In the case of `CC(C)(c1ccc(Cl)cc1)c1cc(Cl)cc(NC(=O)c2cc3cc(C(F)S(C)(=O)=O)ccc3s2)c1` (stereo not drawn) [Example 25, N-(3-chloro-5-(2-(4-chlorophenyl)propan-2-yl)phenyl)-5-(fluoro(methylsulfonyl)methyl)benzo[b]thiophene-2-carboxamide], the IC50 is 0.034 µM in the experiment with STAT3, more than 50 µM in the experiment with STAT1, 0.072 µM in experiment [1] and 0.066 µM in experiment [2].
On the same counts, the results for `CC(C)(c1cc(Cl)cc(NC(=O)c2cc3cc(C(C)(C)S(C)(=O)=O)ccc3s2)c1)c1ccc(Cl)s1` [Example 27, N-(3-chloro-5-(2-(5-chlorothiophen-2-yl)propan-2-yl)phenyl)-5-(2-(methylsulfonyl)propan-2-yl)benzo[b]thiophene-2-carboxamide] are 0.075 µM, more than 50 µM, 0.029 µM and 0.024 µM.
On the same counts, the results for `CC(C)(c1ccc(Cl)cc1)c1cc(Cl)cc(NC(=O)c2cc3cc(C4(S(C)(=O)=O)CC4)ccc3s2)c1` [Example 33, N-(3-chloro-5-(2-(4-chlorophenyl)propan-2-yl)phenyl)-5-(1-(methylsulfonyl)cyclopropyl)benzo[b]thiophene-2-carboxamide] are 0.054 µM, more than 50 µM, 0.03 µM and 0.023 µM.
On the same counts, the results for `CC(C)(c1ccc(Cl)cc1)c1cc(Cl)cc(NC(=O)c2cc3cc(C4(S(C)(=O)=O)CCOCC4)ccc3s2)c1` [Example 34, N-(3-chloro-5-(2-(4-chlorophenyl)propan-2-yl)phenyl)-5-(4-(methylsulfonyl)tetrahydro-2H-pyran-4-yl)benzo[b]thiophene-2-carboxamide] are 8.7 µM, more than 50 µM, more than 1.1 µM and more than 1.1 µM.
Consider `CC(C)(c1ccc2sc(C(=O)Nc3cc(Cl)cc(Oc4ccc(OC(F)(F)F)cc4)c3)cc2c1)S(C)(=O)=O` [Example 37, N-(3-chloro-5-(4-(trifluoromethoxy)phenoxy)phenyl)-5-(2-(methylsulfonyl)propan-2-yl)benzo[b]thiophene-2-carboxamide], for which the 50% inhibitory concentration (IC50) was 0.015 µM in the experiment with STAT3, more than 50 µM in the experiment with STAT1, 0.01 µM in experiment [1] and 0.0071 µM in experiment [2].
For `CC(C)(c1ccc2sc(C(=O)Nc3cc(Cl)cc(Oc4ccc(C(F)(F)F)cc4)c3)cc2c1)S(C)(=O)=O` [Example 38, N-(3-chloro-5-(4-(trifluoromethyl)phenoxy)phenyl)-5-(2-(methylsulfonyl)propan-2-yl)benzo[b]thiophene-2-carboxamide], the IC50 in the experiment on STAT3 was 0.018 µM; in the experiment on STAT1, more than 50 µM; in experiment [1] it was 0.0083 µM; in experiment [2], 0.0053 µM.
As for `CS(=O)(=O)Cc1ccc2sc(C(=O)Nc3cc(Cl)cc(Oc4ccc(Cl)cc4)c3)cc2c1` [Example 41, N-(3-chloro-5-(4-chlorophenoxy)phenyl)-5-((methylsulfonyl)methyl)benzo[b]thiophene-2-carboxamide], the IC50 was 0.16 µM in the experiment with STAT3, more than 50 µM in the experiment with STAT1, 0.12 µM in experiment [1] and 0.063 µM in experiment [2].
On the same counts, the results for `O=C(Nc1cc(Cl)cc(Oc2ccc(Cl)cc2)c1)c1cc2cc(CS(=O)(=O)C(F)(F)F)ccc2s1` [Example 42, N-(3-chloro-5-(4-chlorophenoxy)phenyl)-5-(((trifluoromethyl)sulfonyl)methyl)benzo[b]thiophene-2-carboxamide] are 1.25 µM, more than 50 µM, more than 1.1 µM and more than 1.1 µM.
Consider `CC(C)(c1ccc2sc(C(=O)Nc3cc(Cl)cc(Oc4ccc(F)cc4)c3)cc2c1)S(C)(=O)=O` [Example 43, N-(3-chloro-5-(4-fluorophenoxy)phenyl)-5-(2-(methylsulfonyl)propan-2-yl)benzo[b]thiophene-2-carboxamide], for which the IC50 in the experiment with STAT3 is 0.023 µM; in the experiment with STAT1, more than 50 µM; in experiment [1] it was 0.032 µM; in experiment [2], 0.011 µM.
As to `CC(C)(c1cc2cc(C(=O)Nc3cc(Cl)cc(Oc4ccc(Cl)cc4)c3)sc2cc1F)S(C)(=O)=O` [Example 44, N-(3-chloro-5-(4-chlorophenoxy)phenyl)-6-fluoro-5-(2-(methylsulfonyl)propan-2-yl)benzo[b]thiophene-2-carboxamide], the IC50 in the experiment on STAT3 was 0.019 µM; in the experiment with STAT1, more than 50 µM; in experiment [1], 0.039 µM; in experiment [2] it was 0.019 µM.

As usually defined, the IC50 is the concentration needed to halve the response being measured.
